Test results reported in patent US6180621A, “Method and treatment using 1-methylcarbapenem derivatives as an anti-helicobacter pylori agent” (Sankyo Company, Limited, priority 1996, dated 2001).
Converted amounts (≈) assume the structure as drawn. Where two headings read alike, the source gives them in different places.

Key:
helicobacter pylori [1] = details: background, reported; cited from earlier work
[2] = system: helicobacter pylori 9470 strain; assay: Therapeutic effects for nude mouse infected with helicobacter pylori (viable microbe cell number, CFU/stomach); type: in vivo; details: oral, once a day for 4 days, nude mice
Procedure: Therapeutic effects for nude mouse infected with helicobacter pylon Bacteria (helicobacter pylori 9470 strain) used for the test, which were cultured for 48 hours in a 2%-fetal-calf-serum-added brucella broth, were centrifuged. After removal of the supernatant, the residue was re-suspended in a 1/10 amount of a brucella broth. The resulting suspended solution was orally administered to each of three to five nude mice in an amount of […] per mouse. 10 days after the infection, administration of a medicament was started. A 0.5% tragacanth suspension of a medicament was orally administered for 4 days through an oral catheter at a dose of 0.3 ml/mouse, once a day. On the day after the final administration, the stomach was extirpated, homogenized and then diluted. […] The significant difference of Medicament B(2), Medicament C(1) or C(2) is p<0.01 (vs the control group).

helicobacter pylori [3] = assay: In vitro activity against helicobacter pylori (MIC), agar plate; type: cell-based; details: for MIC: Helicobacter pylori, 72 h, read-out: minimum inhibitory concentration (MIC)
Procedure: In vitro activity against helicobacter pylon (MIC; μg/ml)
Helicobacter pylori (H. pylori) from storage was smeared on a 7%-equine-defibrinated-blood-added brain heart infusion agar (BHIA) plate and cultured at 37° C. for 72 hours under microaerophilic and wet conditions. The colonies thus grown were picked and suspended in physiological saline to prepare a culture solution of 10^8 CFU/ml (viable microbe cell number per ml). The resulting culture solution was diluted to 10 to 50-fold with physiological saline, and one spot (about 10 μl) of the solution was inoculated on each of medicament-containing and medicament-free BHIA plates. Each of the plates was cultured at 37° C. for 72 hours under microaerophilic and wet conditions and the minimum inhibitory concentration (MIC: μg/ml) at which the growth of the colonies was inhibited was measured.

[4] = H. pylori strain 9470, 37° C., 72 hours, microaerophilic, BHIA plate
[5] = H. pylori strain 9472, 37° C., 72 hours, microaerophilic, BHIA plate
[6] = H. pylori strain 9474, 37° C., 72 hours, microaerophilic, BHIA plate
[7] = H. pylori strain 9824, 37° C., 72 hours, microaerophilic, BHIA plate
[8] = H. pylori strain 9828, 37° C., 72 hours, microaerophilic, BHIA plate

For CN(C)C1C(=O)C(C(N)=O)=C(O)C2(O)C(=O)C3=C(O)c4c(O)cccc4C(C)(O)C3CC12 (stereo not shown) [tetracycline], the “effect against helicobacter pylori” value (helicobacter pylori [1]) is listed as “effective against helicobacter pylori”.

For C[C@@H](O)[C@H]1C(=O)N2C(C(=O)OCOC(=O)C(C)(C)C)=C(S[C@H]3CNC(=O)C3)[C@H](C)[C@H]12 [Compound 4, pivaloyloxymethyl (1R,5S,6S)-2-[(4R)-2-oxo-4-pyrrolidinylthio]-6-[(1R)-1-hydroxyethyl]-1-methyl-1-carbapen-2-em-3-carboxylate], the “significant difference (p) vs the control group, viable microbe cell number (CFU/stomach)” value (“significant difference (p) … (CFU/stomach)” below) ([2]; 1 mg/kg) was < 0.01 and the “significant difference (p) … (CFU/stomach)” value ([2]; 10 mg/kg) was < 0.01.

For Cc1ncc([N+](=O)[O-])n1CCO [metronidazole], the “effect against helicobacter pylori” value (helicobacter pylori [1]) is listed as “effective against helicobacter pylori”.

For O=C([O-])CC(O)(CC(=O)[O-])C(=O)[O-].[Bi+3] [bismuth citrate], the “effect against helicobacter pylori” value (helicobacter pylori [1]) is given as “effective against helicobacter pylori”.

In the case of CC1(C)S[C@@H]2[C@H](NC(=O)[C@H](N)c3ccc(O)cc3)C(=O)N2[C@H]1C(=O)O [AMPC, amoxicillin], the “effect against helicobacter pylori” value (helicobacter pylori [1]) is given as “effective against helicobacter pylori”, the MIC (helicobacter pylori [3]; [4]) is given as 12 ng/mL (≈ 0.0328 µM) and the MIC (helicobacter pylori [3]; [5]) is given as 25 ng/mL (≈ 0.0684 µM). For the same molecule, the MIC (helicobacter pylori [3]; [6]) was 50 ng/mL (≈ 0.137 µM), the MIC (helicobacter pylori [3]; [7]) was 390 ng/mL (≈ 1.07 µM) and the MIC (helicobacter pylori [3]; [8]) was 200 ng/mL (≈ 0.547 µM).

For CC[C@H]1OC(=O)[C@H](C)[C@@H](O[C@H]2C[C@@](C)(OC)[C@@H](O)[C@H](C)O2)[C@H](C)[C@@H](O[C@@H]2O[C@H](C)C[C@H](N(C)C)[C@H]2O)[C@](C)(OC)C[C@@H](C)C(=O)[C@H](C)[C@@H](O)[C@]1(C)O [CAM, clarithromycin], the “effect against helicobacter pylori” value (helicobacter pylori [1]) is listed as “effective against helicobacter pylori”, the “significant difference (p) … (CFU/stomach)” value ([2]; 10 mg/kg) is listed as < 0.01 and the MIC (helicobacter pylori [3]; [4]) is listed as 6 ng/mL (≈ 0.00802 µM). For the same molecule, the MIC (helicobacter pylori [3]; [5]) was 6 ng/mL (≈ 0.00802 µM), the MIC (helicobacter pylori [3]; [6]) was 25 ng/mL (≈ 0.0334 µM) and the MIC (helicobacter pylori [3]; [7]) was 1500 ng/mL (≈ 2.01 µM). The MIC (helicobacter pylori [3]; [8]) was 6250 ng/mL (≈ 8.36 µM).

With C[C@@H](O)[C@H]1C(=O)N2C(C(=O)[O-])=C(S[C@H]3CC(=O)N(C)C3)[C@H](C)[C@H]12.[Na+] [Compound 3, sodium (1R,5S,6S)-2-[(4S)-1-methyl-2-oxo-4-pyrrolidinylthio]-6-[(1R)-1-hydroxyethyl]-1-methyl-1-carbapen-2-em-3-carboxylate] the “minimum inhibitory concentration (MIC)” value (helicobacter pylori [3]; [5]) was ≤ 6 ng/mL, the “minimum inhibitory concentration (MIC)” value (helicobacter pylori [3]; [7]) was ≤ 6 ng/mL and the “minimum inhibitory concentration (MIC)” value (helicobacter pylori [3]; [8]) was ≤ 6 ng/mL. For the same molecule, the MIC (helicobacter pylori [3]) was ≤ 6 ng/mL.

For C[C@@H](O)[C@H]1C(=O)N2C(C(=O)[O-])=C(S[C@H]3CNC(=O)C3)[C@H](C)[C@H]12.[Na+] [Compound 1, sodium (1R,5S,6S)-2-[(4R)-2-oxo-4pyrrolidinylthio]-6-[(1R)-1-hydroxyethyl]-1-methyl-1-carbapen-2-em-3-carboxylate], the “minimum inhibitory concentration (MIC)” value (helicobacter pylori [3]; [5]) was ≤ 6 ng/mL, the “minimum inhibitory concentration (MIC)” value (helicobacter pylori [3]; [6]) was ≤ 6 ng/mL and the “minimum inhibitory concentration (MIC)” value (helicobacter pylori [3]; [7]) was ≤ 6 ng/mL. For the same molecule, the “minimum inhibitory concentration (MIC)” value (helicobacter pylori [3]; [8]) was ≤ 6 ng/mL and the MIC (helicobacter pylori [3]) was ≤ 6 ng/mL.

With C[C@@H](O)[C@H]1C(=O)N2C(C(=O)O)=C(S[C@@H]3CC(=O)N(C)C3)[C@H](C)[C@H]12 [Compound 2] the MIC (helicobacter pylori [3]; [4]) was ≤ 0.6 ng/mL, the MIC (helicobacter pylori [3]; [5]) was ≤ 6 ng/mL and the MIC (helicobacter pylori [3]; [7]) was ≤ 6 ng/mL. The MIC (helicobacter pylori [3]; [8]) was ≤ 6 ng/mL.
